Results on two compounds are retold here after article PMC8279484 (Journal of Medicinal Chemistry, 2021).

Data set [1] has as its system C57BL/6J mice. Kind of data set: Murine zymosan-induced peritonitis. It counts as in vivo, mouse. To be noted: peritoneal lavage, n = 5 mice. As for the experimental part:
Male C57BL/6J mice of 9 weeks of age were purchased from Charles River (Kent, U.K.) and were housed in a specific pathogen-free facility in individually ventilated and filtered cages under positive pressure. Peritonitis was induced in mice by ip injection of zymosan (purchased from Sigma-Aldrich; 1 mg per mouse in 0.5 mL of phosphate-buffered saline (PBS)).[73] Mice were treated with dexamethasone (1 μg/g) purchased from Sigma-Aldrich 1 h prior to zymosan injection or (R)-6 (2 and 6 ng/g) (200 μL IP) 30 min prior to zymosan injection. Peritoneal cells were collected by lavage 4 h after injection of zymosan. The local Animal Use and Care Committee and The UK Home Office approved the animal experiments in accordance with the derivatives of both The Home Office Guidance on the Operation of Animals (Scientific Procedures) Act 1986 and The Guide for the Care and Use of Laboratory Animals of the National Research Council.
Surface marker expression on peritoneal cells was assessed by flow cytometry with data collection on a FACSCalibur (Becton Dickinson). Data were analyzed with FlowJo analysis software (Treestar Inc.). Cells were stained with AlexaFluor488 conjugated anti-F4/80 (clone BM8; eBioscience); APC conjugated anti-CD11b (clone M1/70; eBioscience) and Pacific blue conjugated anti-Ly6G (clone 1A8; BioLegend) antibodies. Prior to surface staining, peritoneal cells were counted manually (Neubauer chamber) with Turks solution. Using appropriate fluorescence minus one (FMO) controls, quadrants were drawn, and data were plotted on logarithmic-scale density- or dot-plots.

The subject of data set [2] is NF-κB. Nature of the data set: TNF-α-induced NF-κB reporter (pNF-κB-SEAP) assay in vSMCs. It counts as cell-based, mouse. The note with it: (R)-6 1 nM, TNF-α 1 ng/mL 24 h; TNF-α alone 5-fold. As for the experimental part:
Mouse primary vascular SMCs were cultured at 37 °C in a humidified atmosphere of 95% air/5% CO2 and maintained in Dulbecco’s modified Eagle’s medium (DMEM; Life Technologies) supplemented with 25 mmol/L glucose with 10% (v/v) FBS. For treatments, media contained only 1% FBS.
NF-κB activity was determined by measuring secreted alkaline phosphatase in the culture supernatant using the SEAP Reporter Gene Assay System (Roche Australia). Cell experiments were performed six to eight times, and the values presented are the mean ± SEM from independent experiments.

In data set [3] the test system is IL-6. Nature of the data set: LPS-induced IL-6 release from THP-1 Lucia monocytes (multiplex electrochemiluminescence). The note with it: for IC50: Homo sapiens, THP-1; for IC50 / Imax, IL-6 release: LPS 50 ng/mL, 24 h; for Imax, IL-6 release: concentration–response. The data set is classed as cell-based, human. As for the experimental part: (§1) LXA41 and all of the tested sLXms were dissolved in ethanol and further diluted in a culture medium (final ethanol concentration 0.1%; equivalent concentrations were used as the vehicle control). Prior to in vitro experiments, THP-1-Lucia NF-κB cells were harvested and plated at 1 × 10^5 cells/well on 96-well plates and left to settle in the incubator at 37 °C, 95% humidity, and 5% CO2, in 0.1% FBS-containing media, pretreated for 30 min with increasing doses of LXA41, sLXms (from 10^–12 to 10^–6 M), or appropriate controls, followed by stimulation with 50 ng/mL LPS for 24 h. Untreated (Unt) or vehicle-treated (Veh) cells were used as negative controls; 1 pM (1R)-5, the (1R)-epimer of the benzo-mimetic, was used as a positive control for any aromatic mimetic; and, finally, we compared the observed effects to the conventional glucocorticoid dexamethasone (Dex) treatment, at 1 μM.
(§2) After 24 h of exposure to LXA41, sLXms, or vehicle, followed by LPS stimulation (50 ng/mL), as described above, THP-1-Lucia NF-κB-cell supernatants were collected and cleared by centrifugation. Concentrations of IFN-γ, IL-1β, IL-6, IL-8, IL-10, IL-12p70, and TNF-α in culture supernatants were assessed by electro-chemi-luminescent detection, using a commercially available human 96-well plate “multiplex” (several analytes in the same well) kit for tissue culture samples, according to the manufacturers’ guidelines.
(§3) The “coding” of the heat-map indicates the arbitrary criteria to assign points to each single PD component (efficacy = Imax or Emax; potency = IC50 or EC50; slope = HS) to generate a final (aggregate) relative PD score. If a single PD component was greater than the reference level (x > 1), then the single-component relative score was arbitrarily set to +1 (light green) or +2 (dark green). If a single PD component was equal to the reference level (x = 1), then the single-component relative score was arbitrarily set to 0 (gray). If a single PD component was smaller than the reference level (x < 1), then the single-component relative score was arbitrarily set to −1 (light red) or −2 (dark red). If the curve of a single PD component was best fitting to a flat line (x = 0), then the single-component relative score was arbitrarily set to −4 (purple) (Table S1).

Data set [4] concerns IL-1β. Nature of the data set: LPS-induced IL-1β release from THP-1 Lucia monocytes (multiplex electrochemiluminescence). The data set is classed as cell-based, human. To be noted: for IC50: Homo sapiens, THP-1. As for the experimental part: as §1, §2, §3
For data set [5], the system named is THP-1 LUCIA monocytes. Nature of the data set: Extrinsic cytotoxicity: LDH release after LPS challenge. It counts as cell-based, human. To be noted: for % LDH release relative to LPS: LPS 24 h. As for the experimental part: We investigated the potential cytotoxicity of all candidate sLXms by assaying LDH release.[50] The response to LPS was arbitrarily set to 100%, and values were expressed relative to this. As previously reported by others, LPS provokes LDH release.[51] […] Ultimately, untreated cells defined the spontaneous cell release thresholds.
Lactate dehydrogenase (LDH) was assayed in cell supernatants to investigate possible cytotoxicity of the lead compound. LDH is rapidly released into the culture medium after disruption of the plasma membrane.[67],[69] After 24 h of exposure to sLXms, vehicle, or controls, followed by LPS stimulation, as described above, THP-1-Lucia NF-κB-cell supernatants were collected and LDH was assayed. Cytotoxicity was evaluated relative to vehicle controls. Maximum releasable LDH was determined in cells lysed with 2% Triton-X-100 (Sigma-Aldrich, Ireland). LDH levels were assessed by reading the absorbance at 490 nm (protein) and 690 nm (background noise), using a spectrophotometer (SPECTRAMAX M2, Molecular Devices (U.K.) Limited).
A general note: LDH in the medium is a marker of cell lysis.

The subject of data set [6] is IL-8. Kind of data set: LPS-induced IL-8 release from THP-1 Lucia monocytes (multiplex electrochemiluminescence). To be noted: Dex 1 μM; 1 1 nM; (R)-6 concentration not given. The data set is classed as cell-based, human. How it is done:
as §1, §2

The subject of data set [7] is NF-κB. Also noted: method as in PMID 30213823. The note with it: LXA4 1 0.1 nM; 2 1 nM; cited from earlier work.

In the case of `CCCCC[C@@H](O)c1nc2ccccc2nc1/C=C/[C@@H](O)[C@@H](O)CCCC(=O)OC` [(R)-6, Methyl (5S,6R,E)-5,6-Dihydroxy-8-(3-((R)-1-hydroxyhexyl)quinoxalin-2-yl)oct-7-enoate], the “Total no of PMNs” value is recorded as 4.4 ± 1.1 × 10^6/mL in data set [1] ((R)-6 2 μg/kg ip (low dose) + zymosan 40 mg/kg) and 3.2 ± 0.7 × 10^6/mL in data set [1] ((R)-6 6 μg/kg ip (high dose) + zymosan 40 mg/kg). Besides, the “NF-κB activity, fold change relative to vehicle” value in data set [2] is 3 fold. The half-maximal inhibitory concentration (IC50) (usually the point on the concentration scale where inhibition reaches its midpoint) in data set [3] came to 1 pM; in data set [4] (LPS 50 ng/mL, 24 h), 1 pM. Also, the “Imax, IL-6 release” value in data set [3] amounted to 84 ± 2%. The “PD score, IL-6 release” value in data set [3] (relative to LXA4 (1)) is reported as −2. The “rel. slope, IL-6 release” value in data set [3] (relative to LXA4 (1)) is on record as 0.7. The “Imax, IL-1β release” value in data set [4] (concentration–response, LPS 50 ng/mL, 24 h) was determined as 73 ± 2%. Moreover, in data set [4] (relative to LXA4 (1)), the “PD score, IL-1β release” value is recorded as −2. For the same compound, in data set [4] (relative to LXA4 (1)), the “rel. slope, IL-1β release” value is −0.03. In addition, the “attenuation of LPS-induced toxicity (LDH)” value in data set [5] (LPS 50 ng/mL, 24 h, 1 pM–1 μM) was 1.3- to 2.4 fold. The “% LDH release relative to LPS” value was determined as 77 ± 10% in data set [5] (highest dose of (R)-6) and 42 ± 4% in data set [5] (lowest dose of (R)-6). Also, the “enhancement of LPS-induced secretion of IL-8” value in data set [6] is listed as 2.5 fold.

As for `CCCCC[C@H](O)/C=C/C=C\C=C\C=C\[C@@H](O)[C@@H](O)CCCC(=O)O` [Compound 1, LXA4], the “effect on TNF-α-stimulated NF-κB activity” value in data set [7] is “reduced TNF-α-stimulated NF-κB activity”. Moreover, in data set [3], the IC50 is 1 pM and the “Imax, IL-6 release” value is recorded as 99 ± 1%. Besides, the concentration for half-maximal inhibition (IC50) in data set [4] (LPS 50 ng/mL, 24 h) worked out at 1 pM. Also, the “enhancement of LPS-induced secretion of IL-8” value in data set [6] is listed as 2.5 fold.
